# Columns and labels:
# [1] = molecular target: T1, HIV-1 integrase (wild-type IN) (Human immunodeficiency virus type 1 group M subtype B, UniProt P12497); assay: HIV-1 integrase 3′-processing assay (32P-labeled 21-mer, gel); type: biochemical
# Source text: (§1) The oligonucleotides 21 top, 5′-[…]-3′ (SEQ ID NO:1) and 21 bot, 5′-[…]-3′ (SEQ ID NO:2) were purchased from Norris Cancer Center Core Facility (University of Southern California) and purified by UV shadowing on polyacrylamide gel. To analyze the extent of 3′-processing and strand transfer using 5′-end labeled substrates, 21 top was 5′-end labeled using T4 polynucleotide kinase (Epicentre, Madison, Wis.) and γ [^32P]-ATP (Amersham Biosciences or ICN). The kinase was heat-inactivated and 21 bot was added in 1.5-molar excess. The mixture was heated at 95° C., allowed to cool slowly to room temperature, and run through a spin 25 mini-column (USA Scientific) to separate annealed double-stranded oligonucleotide from unincorporated material.
# (§2) To determine the extent of 3′-processing and strand transfer, wild-type IN was preincubated at a final concentration of 200 nM with the inhibitor in reaction buffer (50 mM NaCl, 1 mM HEPES, pH 7.5, 50 μM EDTA, 50 μM dithiothreitol, 10% glycerol (w/v), 7.5 mM MnCl2, 0.1 mg/ml bovine serum albumin, 10 mM 2-mercaptoethanol, 10% dimethyl sulfoxide, and 25 mM MOPS, pH 7.2) at 30° C. for 30 min. Then, 20 nM of the 5′-end ^32P-labeled linear oligonucleotide substrate was added, and incubation was continued for an additional one hour. Reactions were quenched by the addition of an equal volume (16 μl) of loading dye (98% deionized formamide, 10 mM EDTA, 0.025% xylene cyanol and 0.025% bromophenol blue). An aliquot (5 μl) was electrophoresed on a denaturing 20% polyacrylamide gel (0.09 M tris-borate pH 8.3, 2 mM EDTA, 20% acrylamide, 8M urea).
# (§3) Gels were dried, exposed in a PhosphorImager cassette, and analyzed using a Typhoon 8610 Variable Mode Imager (Amersham Biosciences) and quantitated using ImageQuant 5.2. Percent inhibition (% I) was calculated using the following equation: %I=100×[1−(D−C)/(N−C)]
# (§4) where C, N, and D are the fractions of 21-mer substrate converted to 19-mer (3′-processing product) or strand transfer products for DNA alone, DNA plus IN, and IN plus drug, respectively. The IC50 values were determined by plotting the logarithm of drug concentration versus percent inhibition to obtain concentration that produced 50% inhibition. […]
# [2] = molecular target: T1, HIV-1 integrase (wild-type IN); assay: HIV-1 integrase strand transfer assay (32P-labeled 21-mer, gel); type: biochemical
# Source text: as §1, §2, §3, §4
# [3] = unit inferred, read-out: HIV-1 IN Inhibitory Activities 3′-processing
# [4] = unit inferred, read-out: IN inhibition activity 3′-processing
# [5] = unit inferred, read-out: HIV-1 IN Inhibitory Activities Strand transfer
# [6] = unit inferred, read-out: IN inhibition activity Strand transfer
# [7] = wild-type IN 200 nM, 7.5 mM MnCl2, read-out: Inhibition of IN Catalytic Activities IC50 (μM) 3′-processing
# [8] = wild-type IN 200 nM, 7.5 mM MnCl2, read-out: Inhibition of IN Catalytic Activities IC50 (μM) Strand Transfer
Compound,"IC50 [1, 4]","IC50 [2, 6]","IC50 [1, 7]","IC50 [2, 8]",further results
Cc1ccc(C2C(C(=O)c3ccc(Cl)cc3)=C(O)C(=O)N2CC(=O)O)cc1 (centres unmarked) [Compound X81],84 ± 23 µM,69 ± 36 µM,–,–,"IC50 [1, 3]: 84 µM; IC50 [2, 5]: 69 µM"
CCc1ccc(C=C2SC(=S)N(CC(=O)Nc3cccc(C(=O)O)c3)C2=O)cc1 [Compound X91],–,–,> 100 µM,> 100 µM,–
CCOC(=O)N1CCN(C(=O)CCN2C(=O)/C(=C/c3ccc(OC)c(OC)c3)SC2=S)CC1 [Compound X90],–,–,> 100 µM,> 100 µM,–
CCOc1cc(CNc2nn[nH]n2)cc(Cl)c1OCc1ccc(Cl)cc1 [GLD19],–,–,–,–,"IC50 ([1]; Table 53, structurally diverse compounds, read-out: IN inhibition activity 3′-processing): > 100 µM; IC50 ([2]; Table 53, structurally diverse compounds, read-out: IN inhibition activity Strand transfer): 52 ± 8 µM"
CCn1cc(C(=O)O)c(=O)c2cc(F)c(NNC(=O)C3CCCCC3)cc21 [ROM3A1],–,–,> 100 µM,> 100 µM,–
COc1ccc(-c2nnc(SCC(=O)N/N=C/c3cccc(Oc4ccccc4)c3)n2-c2ccccc2)cc1OC [LX6],> 100 µM,> 100 µM,–,–,–
CCn1c(=O)c(C(=O)Nc2cc(Cl)ccc2OC)c(O)c2ccccc21 [XR5],–,–,74 µM,19 µM,–
O=C(CCN1C(=O)C(=Cc2ccc3c(c2)OCO3)SC1=S)Nc1ccc(O)c(C(=O)O)c1 [Compound X94],–,–,15 ± 10 µM,17 ± 11 µM,–
O=C(CSc1nnc(-c2ccncc2)n1-c1ccc(F)cc1)NNC(=O)c1ccccc1O [AS9A7],49 ± 1 µM,31 ± 2 µM,–,–,–
O=C(N/N=C/c1ccc(-c2ccc(Cl)c(C(=O)O)c2)o1)c1ccc(F)cc1 [AV15A41],> 100 µM,> 100 µM,–,–,–
O=C(CCN1C(=O)/C(=C/c2ccccc2Cl)SC1=S)Nc1ccc([N+](=O)[O-])cc1 [Compound X200],–,–,> 100 µM,> 100 µM,–
CSc1ccc(/C=N/NC(=O)CSc2nnc(-c3ccc(Cl)cc3)n2-c2ccccc2)cc1 [HD39],> 100 µM,> 100 µM,–,–,–
COc1cc(/C=C2/SC(=S)N(CCC(=O)O)C2=O)ccc1OC(=O)c1ccccc1 [OT17],–,–,42 ± 20 µM,27 ± 11 µM,–
O=C(O)CSc1nc(-c2ccccc2)cc(C(F)(F)F)n1 [GLD2A4],> 100 µM,> 100 µM,–,–,–
O=C(Nc1ccc(O)c(-c2nc3ccccc3o2)c1)c1ccccc1F [XR19],–,–,–,–,"IC50 [1, 3]: < 100 µM; IC50 [2, 5]: < 100 µM"
COc1ccc(/C=C2/SC(=S)N(CC(=O)O)C2=O)cc1OCc1ccccc1 [OT5],–,–,> 100 µM,54 ± 17 µM,–
O=C(CCN1C(=O)C(=Cc2ccc3c(c2)OCO3)SC1=S)Nc1ccc(C(=O)O)c(O)c1 [Compound X188],–,–,33 ± 23 µM,23 ± 13 µM,–
O=C(O)c1cccc(-c2ccc(/C=N/Nc3nnn[nH]3)o2)c1 [AV15A1],> 100 µM,96 ± 6 µM,–,–,–
CC1=C(C#N)c2nc(N)c(C#N)c(C)c2/C1=C/c1ccc(-c2ccc(C(=O)O)c(Cl)c2)o1 [AV15A44],> 100 µM,68 ± 22 µM,–,–,–
CC(=O)C1=C(O)C(=O)N(CC(=O)O)C1c1ccc(Br)cc1 (centres unmarked) [Compound X36],–,–,–,–,"IC50 [1, 3]: > 100 µM; IC50 [2, 5]: > 100 µM"
O=C(O)c1cc(-c2ccc(/C=N/Nc3nc4nonc4nc3Nc3cccc(Br)c3)o2)ccc1O [AV15A24],5 ± 3 µM,3.4 ± 2 µM,–,–,–
CCOc1ccc(C(=O)C2=C(O)C(=O)N(c3nccs3)C2c2ccc(OC)cc2)cc1 (centres unmarked) [Compound M28A11],> 100 µM,90 ± 17 µM,–,–,–
COc1ccc(/C=C2/SC(=S)N(CC(=O)O)C2=O)cc1CCc1ccc(Cl)cc1Cl [OT6],–,–,17 ± 4 µM,13 ± 7 µM,–
CCOc1cc(/C=C2\C(=O)N(c3nnn[nH]3)N=C2C)cc(Cl)c1OCC [GLD12A4],–,–,–,–,"IC50 ([1]; Table 54, read-out: IN inhibition activity 3′-processing): 7 ± 6 µM; IC50 ([2]; Table 54, read-out: IN inhibition activity Strand transfer): 4 ± 2 µM"
COc1ccc(O)c(/C=N/NC(=O)CSc2nnc(-c3ccncc3)n2-c2ccccc2)c1 [MC41],> 100 µM,> 100 µM,–,–,–
O=C(/C=C/c1ccco1)NC(=S)Nc1ccccc1O [Example X205],–,–,–,–,"IC50 [1, 3]: 57 µM; IC50 [2, 5]: 28 µM"
O=C(Cc1ccccc1)Nc1cc(C(=O)O)c(NC(=O)Cc2ccccc2)cc1C(=O)O [Compound X7],–,–,9 µM,7 µM,–
O=C(O)c1cccc(-c2ccc(/C=N/Nc3nc4ccccc4s3)o2)c1 [AV15A43],63 ± 7 µM,24 ± 11 µM,–,–,–

Compound,"IC50 [1, 4]","IC50 [2, 6]","IC50 [1, 7]","IC50 [2, 8]",further results
CC1=C(C#N)c2nc(N)c(C#N)c(C)c2/C1=C/c1ccc(-c2ccc(F)cc2)o1 [AV15A48],> 100 µM,> 100 µM,–,–,–
COc1cc(/C=N/Nc2nc3nonc3nc2Nc2ccccc2F)ccc1O [AV15A18],30 ± 12 µM,17 ± 5 µM,–,–,–
COc1ccc(-c2nnc(SCC(=O)N/N=C/c3ccccc3C(=O)O)n2-c2ccccc2)cc1OC [GLD38],> 100 µM,> 100 µM,–,–,–
O=C(O)c1cc(-c2ccc(/C=C/c3cc(C(F)(F)F)[nH]c(=O)n3)o2)ccc1Cl [AV15A12],74 ± 32 µM,50 ± 25 µM,–,–,–
O=C(O)c1cc(-c2ccc(/C=N/Nc3nc4nonc4nc3Nc3ccccc3F)o2)ccc1Cl [AV15A14],16 ± 8 µM,13 ± 5 µM,–,–,–
Nc1c(C(=O)Nc2ccc(Cl)c(Cl)c2)sc2[nH]c(=O)c(C(=O)O)cc12 [GLD44],14 ± 6 µM,5 ± 4 µM,–,–,–
Cc1ccc(-n2c(SCC(=O)NNC(=O)c3ccccc3O)nnc2-c2ccccc2O)cc1 [AS9],5 ± 2 µM,3 ± 1 µM,–,–,–
O=C(Nc1cc(C(=O)Nc2ccccc2C(=O)O)cc(C(=O)Nc2ccccc2C(=O)O)c1)c1ccccc1 [ROM1],–,–,–,–,"IC50 [1, 3]: 78 µM; IC50 [2, 5]: 20 µM"
O=C(CSc1nnnn1-c1ccccc1)NNC(=O)c1ccc(O)cc1O [AS9A8],68 ± 3 µM,61 ± 6 µM,–,–,–
CC1=C(C#N)c2nc(N)c(C#N)c(C)c2/C1=C/c1ccc(-c2cccc(C(=O)O)c2)o1 [AV15A11],24 ± 16 µM,20 ± 13 µM,–,–,–
O=C(C1=C(O)C(=O)N(c2nc3ccccc3s2)C1c1ccc2c(c1)OCO2)c1ccccc1 (centres unmarked) [Compound M28A8],57 ± 10 µM,21 ± 10 µM,–,–,–
COc1ccc(C(=O)Nc2ccc(O)c(-c3nc4ccccc4o3)c2)cc1[N+](=O)[O-] [XR17],–,–,–,–,"IC50 [1, 3]: 6 µM; IC50 [2, 5]: 7 µM"
O=C(Cc1ccc(F)cc1)N/N=C/c1ccc(-c2ccc(Cl)c(C(=O)O)c2)o1 [AV15A47],> 100 µM,> 100 µM,–,–,–
O=c1cc(-c2ccccc2)c2ccc(O)c(O)c2o1 [SR44],–,–,32 µM,16 µM,–
O=C(CSc1nc2ccccc2n1Cc1ccccc1)N/N=C/c1cc(Br)ccc1O [Compound X244],60 ± 11 µM,51 ± 3 µM,–,–,–
O=C(NCc1cccs1)c1c[nH]c2ccc(S(=O)(=O)Nc3ccc4c(c3)OCCO4)cc2c1=O [ROM3A11],–,–,91 µM,90 µM,–
CCn1cc(C(=O)O)c(=O)c2cc(F)c(N3CCN(C(=S)NC(=O)C45CC6CC(CC(C6)C4)C5)CC3)cc21 [ROM3A8],–,–,78 µM,74 µM,–
CCOc1ccc(C(=O)C2=C(O)C(=O)N(c3nccs3)C2c2ccc(O)c(OC)c2)cc1 (centres unmarked) [AS161],57 ± 27 µM,30 ± 7 µM,–,–,–
O=C(O)c1cccc(-c2ccc(/C=N/Nc3nc4nonc4nc3Nc3ccc(F)cc3)o2)c1 [AV30],10 ± 3 µM,4 ± 1 µM,10 µM,4 µM,–
O=C(CCN1C(=O)/C(=C/c2cccs2)SC1=S)Nc1ccc2ccccc2c1 [Compound X174],–,–,> 100 µM,> 100 µM,–
Cc1ccc(C(=O)C2=C(O)C(=O)N(CCCn3ccnc3)C2c2ccc(Cl)cc2)cc1 (centres unmarked) [Compound X155],93 ± 12 µM,67 ± 28 µM,–,–,"IC50 [1, 3]: 93 µM; IC50 [2, 5]: 67 µM"
N#C/C(=C\c1ccc(-c2ccc(O)c(C(=O)O)c2)o1)c1nc2ccccc2[nH]1 [AV15A9],25 ± 10 µM,14 ± 4 µM,–,–,–
COc1cccc(NC(=O)c2sc3[nH]c(=O)c(C(=O)O)cc3c2N)c1 [GLD45],82 ± 13 µM,43 ± 12 µM,–,–,–
CCOc1ccc2c(c1)C(=C1SC(C(=O)OC)=C(C(=O)OC)S1)C(=S)C(C)(C)N2C(=O)c1ccccc1F [OT2],–,–,> 100 µM,95 ± 9 µM,–
O=C(O)CSc1nc(-c2cccs2)cc(C(F)(F)F)n1 [GLD2A10],> 100 µM,> 100 µM,–,–,–
Cc1nnc(N/N=C/c2ccc(-c3ccccc3C(=O)O)o2)n1N [AV15A37],> 100 µM,> 100 µM,–,–,–
COc1ccc(C2C(C(=O)c3ccc(Br)cc3)=C(O)C(=O)N2c2cccc(C(F)(F)F)c2)cc1OC (centres unmarked) [AS134],47 ± 7 µM,26 ± 9 µM,–,–,–

# Source: patent US8183236B2, “Compounds with HIV-1 integrase inhibitory activity and use thereof as anti-HIV/AIDS therapeutics” (University of Southern California, priority 2007, dated 2012)
